# Data: ChEMBL document CHEMBL1201862, “PubChem BioAssay data set” (2004)
#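 How tested: cells in 96-well plates exposed to compound for 48 hours at five concentrations. Abbreviation: GI50, concentration required for 50% inhibition of growth.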 The source made the active and inactive calls. Cut-off read from the data, not from the text of the source: active = GI50 up to about 1.1 µM and inactive = higher.
# Assays:
# Experiment in all cases: DTP human tumour cell line panel, 48 h
# [1] = tested on: HOP-62
# [2] = tested on: TK-10
# [3] = tested on: SR
# [4] = tested on: SK-OV-3
# [5] = tested on: UACC-257
# [6] = tested on: SF-539
# [7] = tested on: RPMI-8226
# [8] = tested on: A549
# [9] = tested on: SK-MEL-5
# [10] = tested on: MOLT-4
# [11] = tested on: NCI-H522
# [12] = tested on: UACC-62
# [13] = tested on: RXF 393
# [14] = tested on: U-251
# [15] = tested on: IGROV-1
# [16] = tested on: NCI-H226
# [17] = tested on: OVCAR-4
Structure (SMILES),GI50 [1],GI50 [2],GI50 [3],GI50 [4],GI50 [5],GI50 [6],GI50 [7],GI50 [8],GI50 [9],GI50 [10],GI50 [11],GI50 [12],GI50 [13],GI50 [14],GI50 [15],GI50 [16],GI50 [17]
CC(C)(Oc1ccc(C(=O)c2ccc(Cl)cc2)cc1Cl)C(=O)Nc1c(Cl)cccc1Cl,> 100 µM (inactive),> 100 µM (inactive),9.75 µM (inactive),> 100 µM (inactive),> 100 µM (inactive),> 100 µM (inactive),> 100 µM (inactive),> 100 µM (inactive),20 µM (inactive),67.9 µM (inactive),12.3 µM (inactive),> 100 µM (inactive),< 0.01 µM (active),> 100 µM (inactive),> 100 µM (inactive),–,–
CN(C(=O)c1cccs1)C(=S)N1CCN(c2ccccn2)CC1,> 100 µM (inactive),> 100 µM (inactive),–,> 100 µM (inactive),> 100 µM (inactive),> 100 µM (inactive),> 100 µM (inactive),> 100 µM (inactive),> 100 µM (inactive),> 100 µM (inactive),> 100 µM (inactive),> 100 µM (inactive),> 100 µM (inactive),> 100 µM (inactive),> 100 µM (inactive),> 100 µM (inactive),> 100 µM (inactive)
C/C(=N\NC(=O)CC(=O)Nc1ccc(C)cc1)c1cc2ccccc2oc1=O,> 100 µM (inactive),> 100 µM (inactive),–,> 100 µM (inactive),> 100 µM (inactive),> 100 µM (inactive),> 100 µM (inactive),> 100 µM (inactive),> 100 µM (inactive),> 100 µM (inactive),> 100 µM (inactive),> 100 µM (inactive),89.1 µM (inactive),> 100 µM (inactive),> 100 µM (inactive),> 100 µM (inactive),–
O=C(O)C1=C(C(=O)O)Oc2ccccc2O1,> 100 µM (inactive),> 100 µM (inactive),> 100 µM (inactive),> 100 µM (inactive),> 100 µM (inactive),> 100 µM (inactive),–,> 100 µM (inactive),–,> 100 µM (inactive),> 100 µM (inactive),> 100 µM (inactive),> 100 µM (inactive),> 100 µM (inactive),> 100 µM (inactive),> 100 µM (inactive),> 100 µM (inactive)
O=C1CCCCCCCCCCC(=O)N2CCOCCOCCN1Cc1cccc(n1)C2,> 100 µM (inactive),> 100 µM (inactive),–,> 100 µM (inactive),> 100 µM (inactive),83.2 µM (inactive),36.1 µM (inactive),> 100 µM (inactive),61.5 µM (inactive),39.6 µM (inactive),85.1 µM (inactive),> 100 µM (inactive),28.4 µM (inactive),> 100 µM (inactive),> 100 µM (inactive),> 100 µM (inactive),> 100 µM (inactive)
CC(=O)OC(C)(C)[C@@H]1CC[C@]2(C)/C=C/[C@H](C)C[C@@H](O)C3=C(C)C[C@@H](O3)C12 (some centres not stated),> 100 µM (inactive),> 100 µM (inactive),> 100 µM (inactive),> 100 µM (inactive),> 100 µM (inactive),> 100 µM (inactive),> 100 µM (inactive),> 100 µM (inactive),> 100 µM (inactive),> 100 µM (inactive),–,> 100 µM (inactive),94.6 µM (inactive),> 100 µM (inactive),> 100 µM (inactive),49.1 µM (inactive),> 100 µM (inactive)
O=C(COc1ccc(Br)cc1Br)N1N=C(c2ccc([N+](=O)[O-])o2)CC1(O)c1ccccc1 (configuration not stated),13.2 µM (inactive),–,2.12 µM (inactive),24.1 µM (inactive),23.1 µM (inactive),> 10 µM (inactive),2.11 µM (inactive),8.65 µM (inactive),5.45 µM (inactive),2.64 µM (inactive),5.48 µM (inactive),4.95 µM (inactive),2.53 µM (inactive),8.73 µM (inactive),19.5 µM (inactive),18.2 µM (inactive),17 µM (inactive)
O=C1/C(=C/c2ccc3c(c2)OCCO3)CCC/C1=C\c1ccc2c(c1)OCCO2,33.3 µM (inactive),36.9 µM (inactive),23.8 µM (inactive),83.8 µM (inactive),20.1 µM (inactive),19.2 µM (inactive),16.1 µM (inactive),23.8 µM (inactive),25.6 µM (inactive),20.5 µM (inactive),35.4 µM (inactive),23 µM (inactive),20 µM (inactive),14.2 µM (inactive),32.8 µM (inactive),–,21.1 µM (inactive)
CC1C[C@@]2(c3ccccc3)C(=O)CCC[C@H]2N1 (some centres not stated),> 100 µM (inactive),> 100 µM (inactive),> 100 µM (inactive),> 100 µM (inactive),> 100 µM (inactive),> 100 µM (inactive),–,> 100 µM (inactive),> 100 µM (inactive),> 100 µM (inactive),> 100 µM (inactive),> 100 µM (inactive),> 100 µM (inactive),> 100 µM (inactive),> 100 µM (inactive),> 100 µM (inactive),> 100 µM (inactive)
Cc1ccc(C)c2c1C1CCCCC3(OCCCO3)C21O (configuration not stated),> 100 µM (inactive),> 100 µM (inactive),–,> 100 µM (inactive),> 100 µM (inactive),> 100 µM (inactive),> 100 µM (inactive),> 100 µM (inactive),> 100 µM (inactive),> 100 µM (inactive),> 100 µM (inactive),> 100 µM (inactive),> 100 µM (inactive),> 100 µM (inactive),> 100 µM (inactive),> 100 µM (inactive),> 100 µM (inactive)
O=C1c2ccccc2C(=O)C2C1C1C(=O)c3ccccc3C(=O)C21 (configuration not stated),> 100 µM (inactive),> 100 µM (inactive),–,> 100 µM (inactive),> 100 µM (inactive),> 100 µM (inactive),–,> 100 µM (inactive),32.6 µM (inactive),–,26.2 µM (inactive),> 100 µM (inactive),> 100 µM (inactive),> 100 µM (inactive),79.1 µM (inactive),–,> 100 µM (inactive)
N#CCCN(C1=NN(C(=O)CC(=O)Nc2ccc(Cl)cc2)C(c2ccccc2)C1)c1ccc(Cl)cc1 (configuration not stated),> 100 µM (inactive),> 100 µM (inactive),> 100 µM (inactive),–,> 100 µM (inactive),> 100 µM (inactive),> 100 µM (inactive),> 100 µM (inactive),> 100 µM (inactive),> 100 µM (inactive),> 100 µM (inactive),> 100 µM (inactive),> 100 µM (inactive),> 100 µM (inactive),> 100 µM (inactive),> 100 µM (inactive),> 100 µM (inactive)
CC1C(=O)O[C@H]2C1CC[C@@]1(C)[C@H](O)CC[C@@]13C[C@]2(O)OO3 (some centres not stated),> 100 µM (inactive),> 100 µM (inactive),> 100 µM (inactive),> 100 µM (inactive),> 100 µM (inactive),–,> 100 µM (inactive),> 100 µM (inactive),> 100 µM (inactive),> 100 µM (inactive),–,> 100 µM (inactive),–,> 100 µM (inactive),> 100 µM (inactive),> 100 µM (inactive),> 100 µM (inactive)
CN(C)c1ccc(/C=C/c2ccc(/C=C/c3ccc(N(C)C)cc3)cc2)cc1,–,> 100 µM (inactive),–,> 100 µM (inactive),90.4 µM (inactive),> 100 µM (inactive),63.8 µM (inactive),95.9 µM (inactive),35.1 µM (inactive),> 100 µM (inactive),> 100 µM (inactive),87.3 µM (inactive),> 100 µM (inactive),> 100 µM (inactive),> 100 µM (inactive),81.8 µM (inactive),> 100 µM (inactive)
COc1ccc(CNc2cnc3ccc(N)cc3n2)cc1OC,> 10 µM (inactive),64.6 µM (inactive),> 100 µM (inactive),–,> 100 µM (inactive),> 100 µM (inactive),> 100 µM (inactive),> 100 µM (inactive),> 100 µM (inactive),> 100 µM (inactive),> 100 µM (inactive),–,–,–,–,> 100 µM (inactive),> 100 µM (inactive)
O=c1sc(-c2nc3ccccc3[nH]2)c(/N=C/c2ccccc2)n1-c1ccccc1,27.9 µM (inactive),62.8 µM (inactive),–,42.6 µM (inactive),> 100 µM (inactive),26.3 µM (inactive),> 100 µM (inactive),57.4 µM (inactive),29.9 µM (inactive),> 100 µM (inactive),90.2 µM (inactive),52.5 µM (inactive),62.4 µM (inactive),68.7 µM (inactive),97.7 µM (inactive),15.4 µM (inactive),6.12 µM (inactive)
Cc1nc(-n2nc(-c3ccccc3)cc2-c2ccccc2)sc1C(=O)/C=C/c1cccc([N+](=O)[O-])c1,15.9 µM (inactive),36 µM (inactive),–,46.3 µM (inactive),22.5 µM (inactive),10.9 µM (inactive),4.76 µM (inactive),17.5 µM (inactive),12.7 µM (inactive),6.04 µM (inactive),13.8 µM (inactive),13.8 µM (inactive),14.1 µM (inactive),15.2 µM (inactive),24.1 µM (inactive),–,–
C=CCC(N(C)C(=O)[C@H](Cc1ccccc1)NC(=O)OCc1ccccc1)P(=O)(Oc1ccccc1)Oc1ccccc1 (some centres not stated),> 100 µM (inactive),> 100 µM (inactive),6.37 µM (inactive),> 100 µM (inactive),> 100 µM (inactive),> 100 µM (inactive),6.81 µM (inactive),5.81 µM (inactive),–,2.77 µM (inactive),> 100 µM (inactive),> 100 µM (inactive),> 100 µM (inactive),> 100 µM (inactive),> 100 µM (inactive),> 100 µM (inactive),–
